# Measurements reported in US7414068B2, “Benzopyran derivatives substituted with secondary amines including tetrazole, method for the preparation thereof and pharmaceutical compositions containing them” (Dongbu Hannong Chemical Co., Ltd., priority 2002, dated 2008).
# Assays:
# [1] = tested on: HUVEC (Human Umbilical Vein Endothelial Cell); experiment: Inhibitory effect against HUVEC tube formation; type: cell-based; parameters: key: −: no effect; +/−: slight effect; +: medium effect; ++: strong effect
# Description: HUVEC (Human Umbilical Vein Endothelial Cell) were cultured, and tubulogenesis (tube formation) was induced in vascular endothelial cells by plating them onto the surface of Matrigel for several hours. The effect on tube formation of the test compounds were compared with the vehicle-treated control group, then confirmed their in-vitro anti-angiogenic effect indirectly.
# [2] = tested on: brain homogenate; experiment: Inhibitory effect against lipid peroxidation by iron (MDA quantification); type: biochemical, rat; conditions: 100 μM compound, FeCl2 400 μM, 37° C. 30 min
# Description: The rat brain was homogenized in a Krebs buffer (15 mM HEPES, 10 mM glucose, 140 mM NaCl, 3.6 mM KCl, 1.5 mM CaCl2, 1.4 mM KH2PO4, 0.7 mM MgCl2, PH 7.4) and the supernatant separated by centrifugation at 12,000 rpm for 10 min was used for further experiments. FeCl2 was added for the final concentration to be 400 μM. Then the brain homogenate was allowed to stand at 37° C. for 30 min for the facilitation of oxidation. Each of the test compounds was added at a concentration of 100 μM. For control group, only vehicle was applied.
# Iron facilitates the oxidation of the said brain homogenate to produce malondialdehyde (MDA), lipid peroxidation product. Thus, the lipid peroxidation was determined by MDA quantification. The inhibitory effect against lipid peroxidation of the test compounds was evaluated by calculating MDA reduction rate of the test compounds compared with that of the control group.
# Typically, the MDA quantification is achieved by reacting samples with 2-thiobarbituric acid (TBA) and measuring the absorbance at 530 nm. However, this method is unsuitable to treat samples on a large scale because of a boiling step. Thus, in this experiment, N-methyl-2-phenylindole was used instead of TBA.
# [3] = tested on: cortical neuron cells; experiment: Protective effect on iron-induced neuronal cell injury (LDH release); type: cell-based; conditions: FeSO4 50 μM; for protective effect on neuron cell: Inhibition (%, 30 μM compound addition): LDH reduction vs control; for IC50: LDH
# Procedure, shortened: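 Embryonic (day 17–18) cortical neurons cultured 7–9 days, serum lowered to 0.2%, pretreated 30 min with compound (DMSO ≤0.1%), then exposed to 50 μM FeSO4 for 24 h. LDH released to medium measured; protection expressed as LDH reduction versus vehicle control.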
# [4] = Acute oral toxicity test in rats; conditions: SD, rat, in vivo, single oral dose, suspended in 0.5% methyl cellulose, read-out: lethal dose (LD50) for oral administration
# Procedure, shortened: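 Six-week-old SPF SD rats, two per group, received compounds orally as suspensions in 0.5% methyl cellulose. Endpoints were clinical signs, body weight, mortality, haematology, serum biochemistry and macroscopic necropsy of organs and tissues.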
# [5] = tested on: isolated rat aorta; experiment: Vasodilating effect on blood vessel excised from rats (methoxamine-constricted aorta); conditions: isolated rat aorta constricted with methoxamine (3 μM); read-out: Concentration for inhibition of constriction induced by methoxamine in rat arota (IC50)
# Procedure, shortened: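 Endothelium-denuded rat thoracic aortic rings (3 mm) in Krebs-Henseleit buffer, 37 °C, carbogen, 2 g resting tension, primed twice with 10^−5 M phenylephrine. After maximal contraction with 3×10^−6 M methoxamine, compounds added cumulatively at 1, 3, 10, 30 μM. IC50 = concentration giving 50% relaxation of maximal constriction, by linear regression.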
# [6] = tested on: RAW 264.7 cells; experiment: Inhibitory effect on NO production (LPS, Griess reagent); type: cell-based, murine; conditions: Mus musculus, RAW264.7, 24 h, Addition 30 μM, LPS 1 μg/ml, read-out: Inihibition (%) of NO production
# Description: Using RPMI1640 media supplemented with 10% fetal bovine serum (FBS), RAW 264.7 cells (obtained from American Type Culture Collection), a murine macrophage cell line, were cultured at 37° C. in a 5% CO2 incubator. The RAW 264.7 cells were harvested and cell density was adjusted to 5×10^5 cell/ml with a RPMI media supplemented with 0.5% FBS and plated at 5×10^4 cell/well to 96-well plate, which were then cultured for 20 hours in a CO2 incubator. After removal of the media, the cells were pre-treated for 1 hour with fresh media containing 30 μM. The test compounds were dissolved in DMSO and diluted to respective concentration in the media. In order to minimize DMSO effect on the nitric oxide formation by the RAW 264.7 cells in the walls, the media were allowed to contain DMSO at a concentration of 0.1% or less.
# After completion of one-hour pre-treatment, Lipopolysaccharide (E. coli serotype 055:B5) was added to activate the cells at a final concentration of 1 μg/ml, which were maintained for 24 hours in a CO2 incubator. As a result of the activation of RAW 264.7 cells with LPS, NO was formed. The NO release into the media was in a form of nitrite (NO2^−) and quantitatively measured using the Griess reagent. A control group was treated only with vehicle instead of test compounds.
# The inhibitory effect of the test compounds against NO production were determined as the reduction of NO quantity compared with that of the control group.
# [7] = tested on: isolated ischemic rat heart; experiment: Cardioprotective effect in ischemic heart models of rats (Langendorff); conditions: 10 μM
# Description: Male rats (300˜450 g, obtained form the experimental animal team of the Korea Research Institute of Chemical Technology) were anaesthetized by the intra-peritoneal injection of sodium pentobarbital at a dose of 100 mg/kg. Heparin (1,000 U/kg) was injected to the tail vein and then the heart was enucleated. Particularly, cannula (PE 240) was inserted to the organ. Rats were mechanically ventilated with a rodent ventilator, in situ aorta cannula was inserted into their aorta. In retorograde perfusion, their hearts were enucleated, then just hung onto Langendorff Apparatus. Tissue attached at the heart was removed. Heart was perfused in oxygenated modified Krebs-Henseleit bicarbonate buffer (composition<mM/L>116 NaCl, 4.7 KCl, 1.1 MgSO4, 1.17 KH2PO4, 24.9 NaHCO3, 2.52 CaCl2, 8.32 Glucose, 2.0 Pyruvate) at a constant perfusion pressure (85 mmHg). A metal cannula attached to latex balloon filled with solvent (ethanol: water=1:1 (v/v)) was placed in the left ventricle through pulmonary vein and connected to a isovolumetric pressure transducer (H.S.E., Germany) for measurement of left ventricular pressure (LVP). The hearts were allowed to equilibrate for 15 min, at which time left ventricular end-diastolic pressure (EDP) was adjusted to 5 mmHg and this balloon volume was maintained throughout the experiment.
# Baseline cardiac contractile function, heart rate (HR), and coronary flow (CF) were measured. Cardiac contractile function was calculated by […], yielding LVDP (left ventricular developed pressure). Double product RPP (rate-pressure product) (DP), another important parameter for indirectly assessing cardiac performance in Langendorff heart impossible to measure cardiac output was calculated by multiplying HR by LVDP.
# Throughout the experiment, total coronary blood flow was measured by the use of coronary flow probe (diameter: 1.0 mm) installed in aortic cannula with electromagnetic flowmeter. Temperature of heart was steadily maintained by immersing the heart at 37° C. in physiological saline solution to which 95% O2/5% CO2 was constantly supplied. After stabilization for 15 min, the hearts were pre-treated for 10 min in vehicle (0.04% DMSO) or mixture containing the compound of the present invention or control material. Thereafter, cardiac contractile function, HR and CF were repeatedly measured. Global ischemia was induced by completely shutting off the perfusate for 30 min. Severity of ischemia was determined as the time to contracture (TTC, min) during global ischemia in which the first 5 mmHg increase in EDP was observed. Then, the hearts were reperfused and, 30 min later, contractile functions (LVDP, HR and CF) was repeatedly measured. After reperfusion was accomplished for 30 min, LDH (lactate dehydrogenase) was measured as a sensitive index for loss of cell viability with a kit.
# [8] = tested on: Low density lipoprotein of human (human LDL); experiment: Inhibitory effect against lipid peroxidation induced by copper (LDL oxidation, MDA); type: biochemical; conditions: CuSO4 10 μM, 37° C. 18 hours
# Description: Low density lipoprotein of human (human LDL, sigma) was dissolved in water to be final concentration of 1 mg/ml. To remove EDTA (ethylenediamine tetraacetate), the aqueous solution was dialyzed in phosphate buffer at 4° C. for 18 hours. At this dialysis, phosphate buffer was changed three times. Phosphate buffer was added to LDL (100 μg LDL protein/ml) which EDTA was removed from the aqueous solution, additionally thereto CuSO4 10 μM as oxidant was added. […] Group to which CUSO4 was not added was used as blank group. Group to which CUSO4 and vehicle were added in place of test compounds was used as control group. The mixture was incubated at 37° C. for 18 hours. EDTA […] was added to the mixture to terminate the oxidation reaction.
# As shown in example 4, Cu^2+ facilitates the oxidation reaction to produce malondialdehyde (MDA), lipid peroxidation product. The MDA quantification is achieved by reacting samples with 2-thiobarbituric acid (TBA) and measuring the absorbance at 530 nm. Also, 1,1,3,3-tetramethoxypropane purchased from sigma was used as standard materials. Inhibitory effect against lipid peroxidation of the test compounds was measured by MDA (nmol) to protein (mg). Decrease of MDA to that of control group was calculated.
compound,measurement,setting,value
"COC(OC)[C@@]1(C)Oc2ccc([N+](=O)[O-])cc2[C@H](N(Cc2nnn(C)n2)c2ccc(Cl)cc2)[C@H]1O [Example 2, (2S,3R,4S)-6-nitro-4-[N-(4-chlorophenyl)-N-(2-methyl-2H-tetrazol-5-ylmethyl)amino]-3-hydroxy-2-methyl-2-dimethoxymethyl-3,4-dihydro-2H-1-benzopyran]",Tube formation (inhibitory effect),[1]; 10 μM,+
same,Tube formation (inhibitory effect),[1]; 100 μM,++
"COC(OC)[C@@]1(C)Oc2ccc(N)cc2[C@H](N(Cc2nnn(C)n2)c2ccc(C)cc2)[C@H]1O [Example 28, (2S,3R,4S)-6-amino-4-[N-(4-methylphenyl)-N-(2-methyl-2H-tetrazol-5-ylmethyl)amino]-3-hydroxy-2-methyl-2-dimethoxymethyl-3,4-dihydro-2H-1-benzopyran]","inhibitory effect against lipid peroxidation induced by iron (%, 100 μM)",[2],83%
same,Tube formation (inhibitory effect),[1]; 10 μM,+/−
same,Tube formation (inhibitory effect),[1]; 100 μM,+
same,"protective effect on neuron cell: Inhibition (%, 30 μM compound addition)",[3]; 24 hours,103%
same,IC50,"[3]; Cortical neurone, 24 h",4.1 µM
same,LD50,[4],> 2000 mg/kg
same,IC50,[5],> 30 µM
"COC(=O)c1cccc(N(Cc2nnn(C)n2)[C@H]2c3cc([N+](=O)[O-])ccc3O[C@](C)(C(OC)OC)[C@@H]2O)c1 [Example 58, (2S,3R,4S)-6-nitro-4-[N-(3-methoxycarbonylphenyl)-N-(2-methyl-2H-tetrazol-5-ylmethyl)amino]-3-hydroxy-2-methyl-2-dimethoxymethyl-3,4-dihydro-2H-1-benzopyran]",inhibition at 30 µM,[6],> 75%
"COC(OC)[C@@]1(C)Oc2ccc([N+](=O)[O-])cc2[C@H](N(Cc2nnn(C)n2)c2ccccc2O)[C@H]1O [Example 60, (2S,3R,4S)-6-nitro-4-[N-(2-hydroxyphenyl)-N-(2-methyl-2H-tetrazol-5-ylmethyl)amino]-3-hydroxy-2-methyl-2-dimethoxymethyl-3,4-dihydro-2H-1-benzopyran]","inhibitory effect against lipid peroxidation induced by iron (%, 100 μM)",[2],85%
same,"protective effect on neuron cell: Inhibition (%, 30 μM compound addition)",[3]; 24 hours,87%
same,IC50,"[3]; Cortical neurone, 24 h",< 1 µM
same,IC50,[3]; 24 hours,0.7 µM
same,inhibition at 30 µM,[6],> 75%
same,LD50,[4],> 2000 mg/kg
"COC(=O)c1ccc(C)c(N(Cc2nnn(C)n2)[C@H]2c3cc([N+](=O)[O-])ccc3O[C@](C)(C(OC)OC)[C@@H]2O)c1 [Example 68, (2S,3R,4S)-6-nitro-4-[N-(2-methyl-5-methoxycarbonylphenyl)-N-(2-methyl-2H-tetrazol-5-ylmethyl)amino]-3-hydroxy-2-methyl-2-dimethoxymethyl-3,4-dihydro-2H-1-benzopyran]",inhibition at 30 µM,[6],64%
"COC(OC)[C@@]1(C)Oc2ccc([N+](=O)[O-])cc2[C@H](N(Cc2nnn(C)n2)c2cc(C)ccc2O)[C@H]1O [Example 70, (2S,3R,4S)-6-nitro-4-[N-(2-hydroxy-5-methylphenyl)-N-(2-methyl-2H-tetrazol-5-ylmethyl)amino]-3-hydroxy-2-methyl-2-dimethoxymethyl-3,4-dihydro-2H-1-benzopyran]","protective effect on neuron cell: Inhibition (%, 30 μM compound addition)",[3]; 24 hours,85%
same,IC50,"[3]; Cortical neurone, 24 h",< 2 µM
same,IC50,[3]; 24 hours,1.4 µM
same,inhibition at 30 µM,[6],> 75%
same,LD50,[4],> 2000 mg/kg
same,EDP (mmHg),[7]; after 30 min global ischemia and reperfusion,37.0 mmHg
same,LDH (u/g),[7]; reperfusion LDH release,18.4 u/g
same,LVDP X HR (%),"[7]; reperfusion, % of pre-treatment DP",31.9%
same,TTC,[7]; time to contracture during global ischemia,22.0 min
same,IC50,[5],> 30 µM
CC(C)(Sc1cc(C(C)(C)C)c(O)c(C(C)(C)C)c1)Sc1cc(C(C)(C)C)c(O)c(C(C)(C)C)c1 [Probucol],Inhibitory effect(%) against lipid peroxidation induced by copper,[8]; Addition 10^−5 M,66.7%
same,Inhibitory effect(%) against lipid peroxidation induced by copper,[8]; Addition 10^−6 M,58.7%
same,Inhibitory effect(%) against lipid peroxidation induced by copper,[8]; Addition 10^−7 M,33.7%
tocopherol,Inhibitory effect(%) against lipid peroxidation induced by copper,[8]; Addition 10^−5 M,29.7%
same,Inhibitory effect(%) against lipid peroxidation induced by copper,[8]; Addition 10^−7 M,21.3%
